Data on three molecules can be found in BindingDB's records for patent US12043645 (Memorial Sloan-Kettering Cancer Center, 2024).

Set1/Ash2 histone methyltransferase complex subunit ASH2, sequence (Q9UBL3 whole entry, one chain of several): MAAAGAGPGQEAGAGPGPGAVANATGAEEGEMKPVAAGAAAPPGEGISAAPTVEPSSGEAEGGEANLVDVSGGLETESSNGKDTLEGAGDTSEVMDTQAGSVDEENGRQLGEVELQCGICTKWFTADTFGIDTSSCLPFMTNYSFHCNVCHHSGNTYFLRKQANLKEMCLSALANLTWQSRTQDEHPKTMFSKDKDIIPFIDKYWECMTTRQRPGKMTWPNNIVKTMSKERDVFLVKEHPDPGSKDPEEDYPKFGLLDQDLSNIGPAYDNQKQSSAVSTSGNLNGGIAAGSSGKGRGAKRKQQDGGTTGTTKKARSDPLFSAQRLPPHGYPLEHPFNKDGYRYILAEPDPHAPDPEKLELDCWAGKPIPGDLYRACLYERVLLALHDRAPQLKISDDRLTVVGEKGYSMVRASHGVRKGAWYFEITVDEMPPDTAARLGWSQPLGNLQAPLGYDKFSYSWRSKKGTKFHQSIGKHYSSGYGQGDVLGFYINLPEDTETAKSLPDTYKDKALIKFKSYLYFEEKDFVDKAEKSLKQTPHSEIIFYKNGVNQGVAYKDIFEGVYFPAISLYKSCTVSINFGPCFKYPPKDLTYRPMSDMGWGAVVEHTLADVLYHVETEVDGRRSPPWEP

This experiment addresses Set1/Ash2 histone methyltransferase complex subunit ASH2 (Homo sapiens, UniProt Q9UBL3). As to the kind of experiment: Filter-paper Assay. As for the experimental part: This assay relies on Whatman P-81 filter paper, which binds peptides but not SAM. Protein Methyl Transferases (PMTs) transfer 3H-Me of [3H-Me]-SAM to peptide substrates and the resultant 3H-methylated, filter-paper-bound peptide is quantified with a scintillation counter. Briefly, 6 μL of the methylation reaction was spotted onto Whatman P-81 phosphocellulose filter paper (1.2×1.2 cm2) to immobilize the 3H-labeled peptide. After drying in air for 20 min, the filter paper was immersed into 20 mL of 50 mM Na2CO3/NaHCO3 buffer (pH=9.2), and washed 5 times for 10 min each time. The washed filter paper was then transferred to a 20 mL scintillation vial containing 1 mL of distilled water and 10 mL of Ultima Gold scintillation cocktail or 7 mL scintillation vial containing 0.5 mL od distilled water and 5 mL of scintillation cocktail (PerkinElmer). The radioactivity was quantified by a Beckman LS6000IC liquid scintillation counter.
Regarding `COc1ccc(CCNC(=O)[C@@H](N)CC[C@@H](CC2OC(n3cnc4c(N)ncnc43)C(O)C2O)Nc2ccccc2)cc1` (stereo partly drawn) [US12043645, Example 1], the IC50 (as a rule, the concentration that gives 50% inhibition) amounted to 390 nM.

As to `Nc1ncnc2c1ncn2C1OC(C[C@H](CC[C@H](N)C(=O)NCCc2cc(-c3ccccc3)[nH]n2)Nc2ccccc2)C(O)C1O` (stereo partly drawn) [US12043645, Example 5], half-maximal inhibition (IC50) required 2200 nM.

Take `CCCNC(=O)[C@@H](N)CC[C@@H](CC1OC(n2cnc3c(N)ncnc32)C(O)C1O)Nc1ccccc1` (stereo partly drawn) [US12043645, Example 7]: the IC50 amounted to 20 nM.
